From PMC8595825 (Journal of medicinal chemistry, 2021)

Assays:
piniBAC promoter = format: cell-based, Mycobacterium bovis BCG; conditions: 0.4–25 μM, 24 h
M. bovis BCG [1] = format: cell-based, Mycobacterium bovis BCG
[2] = tested on: M. bovis BCG katG mutant strain; format: cell-based, Mycobacterium bovis BCG
[3] = tested on: reactive oxygen species (ROS) in M. bovis BCG; format: cell-based, Mycobacterium bovis BCG; conditions: for ROS levels at higher dose: 2× MIC90; for dose-dependent ROS production: 0.25×–2× MIC90, 90 min
pfurA promoter = format: cell-based, Mycobacterium bovis BCG; conditions: 0.5× to 2× MIC90, 24 h
M. bovis BCG [4] = format: cell-based, Mycobacterium bovis BCG; remark: listed apart in the source
[5] = Metabolic stability in rat microsomes; format: in vitro ADME
[6] = In vivo pharmacokinetics in mice; conditions: mouse; for bioavailability: po, 50 mg/kg
mini-Ames test = format: cell-based
[7] = tested on: M. bovis BCG cell membrane; conditions: for membrane permeabilizing effect: 4× MIC90, after 8 h of exposure; for time at which permeabilization was observed: 4× MIC90, attributed to onset of cell death
[8] = tested on: M. bovis BCG cell membrane; format: cell-based, Mycobacterium bovis BCG; conditions: 4× MIC90 (1.2 μM); for membrane depolarizing effect: after 8 h of exposure; for time at which red/green fluorescence ratio significantly decreased: coincided with onset of cell death
[9] = tested on: nutrient-starved M. tuberculosis H37Rv; assay: Loebel model, nutrient-starved nonreplicating cultures; format: cell-based, Mycobacterium tuberculosis H37Rv; conditions: 40× MIC90 (64 μM); 7 days
[10] = tested on: Vero (African Green Monkey kidney epithelial cells); assay: Cytotoxicity against mammalian Vero cells; format: cell-based; conditions: IC50 Vero/MIC50 Mtb
[11] = biological target: NDH2 in IMVs of M. smegmatis mc^2155 (Mycolicibacterium smegmatis, UniProt A0QYD6); assay: NADH oxidation in inverted membrane vesicles; format: biochemical; conditions: KCN, 20 mM
M. bovis BCG [12] = format: cell-based, Mycobacterium bovis BCG; conditions: N-acetylcysteine, TEMPO, thiourea
M. smegmatis IMVs = assay: Transmembrane pH gradient dissipation in IMVs; format: biochemical; conditions: 1 and 2 μM
[13] = tested on: M. smegmatis mc^2155 IMVs; assay: Oxygen consumption and hydrogen peroxide production by IMVs; format: biochemical
M. bovis BCG [14] = format: cell-based, Mycobacterium bovis BCG; conditions: 32 at its MIC90 + vitamin C 2.5 mM, 5 days

Sequence of NDH2 in IMVs of M. smegmatis mc^2155 (A0QYD6 1-457): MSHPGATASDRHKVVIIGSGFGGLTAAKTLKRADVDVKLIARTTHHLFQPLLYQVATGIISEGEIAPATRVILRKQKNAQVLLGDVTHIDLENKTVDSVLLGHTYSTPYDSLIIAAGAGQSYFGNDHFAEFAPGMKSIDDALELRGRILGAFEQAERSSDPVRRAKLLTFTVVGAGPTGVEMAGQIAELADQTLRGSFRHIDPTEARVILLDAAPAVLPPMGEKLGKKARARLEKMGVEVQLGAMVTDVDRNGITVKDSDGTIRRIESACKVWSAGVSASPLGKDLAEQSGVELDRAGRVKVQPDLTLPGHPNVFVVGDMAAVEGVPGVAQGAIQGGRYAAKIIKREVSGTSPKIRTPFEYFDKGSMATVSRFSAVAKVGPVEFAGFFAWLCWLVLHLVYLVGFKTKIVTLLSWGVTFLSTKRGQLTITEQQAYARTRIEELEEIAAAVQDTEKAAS

Question: Which results are given for NNC(=O)c1ccncc1 [isoniazid, reference compound]?
Answer: piniBAC promoter activity (fluorescence) (piniBAC promoter): duly increased piniBAC promoter activity; time-kill outcome, colony growth by Day 28 (M. bovis BCG [1]; 4× MIC90 (12.8 μM)): comparable to the drug-free cultures; activity against katG mutant strain [2]: inactive against the mutant strain

Question: Which “ROS levels at higher dose” value [3] does the source give for CCCCCCCCn1c(C)nc2c1C(=O)c1ccccc1C2=O [compound 73] here?
Answer: The value was “increased ROS levels but not to the levels induced by the actives at comparable doses”.

Question: What about the “pfurA activation (fluorescence)” value (pfurA promoter) of the same molecule?
Answer: The value was “less evident”.

Question: Which pMIC90 (M. bovis BCG [4]) does the source give for CCCCCCCC[n+]1c2c(n(CC(C)C)c1C)C(=O)c1ccccc1C2=O.[Br-] [compound 35] here?
Answer: Its pMIC90 is over 0.5.

Question: What does the source list for CCCCn1c2c([n+](C3CCC4(CCCCC4)CC3)c1C)C(=O)c1ccccc1C2=O.[Br-] [compound 61]?
Answer: half-life [5]: 0.333 to 0.383 h; piniBAC promoter activity (fluorescence) (piniBAC promoter): no increase in fluorescence; dose-dependent ROS production [3]: duly observed; Vd [6]: 27 to 35 L/kg; clearance [6]: 38 to 55 mL/min/kg; half-life [6]: 7 to 10 h; bioavailability [6]: 1 to 2%; mutagenicity, mini-Ames test (mini-Ames test): not mutagenic; pfurA activation (fluorescence) (pfurA promoter): induced dose-dependent increases in fluorescence; activity against katG mutant strain [2]: a shift to lower MICs was not evident

Question: With CCCCCCn1c2c([n+](CCCCCC)c1C)C(=O)c1ccccc1C2=O.[Br-] [compound 50] as the molecule, how does the pMIC90 (M. bovis BCG [4]) read?
Answer: Its pMIC90 is over 0.5.

Question: Which membrane permeabilizing effect [7] does the source give for CCCCCCCn1c2c([n+](CCCCC)c1C)C(=O)c1ccccc1C2=O.[Br-] [compound 48] here?
Answer: Its membrane permeabilizing effect is “Neither compound induced depolarizing or permeabilizing effects”.

Question: What about the “time at which permeabilization was observed” value [7] of the same molecule?
Answer: The value was 48 h.

Question: And the membrane depolarizing effect [8]?
Answer: Its membrane depolarizing effect is “Neither compound induced depolarizing or permeabilizing effects”.

Question: And the “time at which red/green fluorescence ratio significantly decreased” value [8]?
Answer: Its value is 24 h.

Question: What about the “piniBAC promoter activity (fluorescence)” value (piniBAC promoter) of the same molecule?
Answer: Its value is “no increase in fluorescence”.

Question: And the “dose-dependent ROS production” value [3]?
Answer: The value was “duly observed”.

Question: And the “bactericidal effect, Loebel model” value [9]?
Answer: The value was “substantially reduced CFUs to levels equivalent to or below the detection limit”.

Question: What about the “SI (selectivity index)” value [10] of the same molecule?
Answer: The value was over 25.

Question: What about the pMIC90 (M. bovis BCG [4]) of the same molecule?
Answer: Its pMIC90 is over 0.5.

Question: What about the “pfurA activation (fluorescence)” value (pfurA promoter) of the same molecule?
Answer: Its value is “induced dose-dependent increases in fluorescence”.

Question: With CCCCCCCCn1c2c([n+](CCCC)c1C)C(=O)c1ccccc1C2=O.[Br-] [compound 32] as the molecule, how does the “stimulation of NADH oxidation with cyanide” value [11] read?
Answer: Its value is “retained the ability to stimulate NADH oxidation”.

Question: And the membrane permeabilizing effect [7]?
Answer: Its membrane permeabilizing effect is “Neither compound induced depolarizing or permeabilizing effects”.

Question: What about the “time at which permeabilization was observed” value [7] of the same molecule?
Answer: The value was 24 h.

Question: What about the membrane depolarizing effect [8] of the same molecule?
Answer: The membrane depolarizing effect was “Neither compound induced depolarizing or permeabilizing effects”.

Question: And the “time at which red/green fluorescence ratio significantly decreased” value [8]?
Answer: Its value is 48 h.

Question: And the “effect of antioxidants on growth inhibitory MIC BCG” value (M. bovis BCG [12])?
Answer: Its value is “did not diminish the growth inhibitory potency”.

Question: And the “protonophore activity (pH gradient dissipation)” value (M. smegmatis IMVs)?
Answer: The value was “only moderate rates of pH gradient dissipation”.

Question: And the half-life [5]?
Answer: The half-life was 0.333 to 0.383 h.

Question: What about the “piniBAC promoter activity (fluorescence)” value (piniBAC promoter) of the same molecule?
Answer: The value was “no increase in fluorescence”.

Question: And the “oxygen consumption in IMVs energized by NADH compared to malate” value [13]?
Answer: Its value is ~ 1.8 fold.

Question: What about the “dose-dependent ROS production” value [3] of the same molecule?
Answer: Its value is “duly observed”.

Question: What about the “bactericidal effect, Loebel model” value [9] of the same molecule?
Answer: The value was “substantially reduced CFUs to levels equivalent to or below the detection limit”.

Question: And the Vd [6]?
Answer: The Vd was 27 to 35 L/kg.

Question: And the clearance [6]?
Answer: Its clearance is 38 to 55 mL/min/kg.

Question: What about the half-life [6] of the same molecule?
Answer: The half-life was 7 to 10 h.

Question: What about the bioavailability [6] of the same molecule?
Answer: The bioavailability was 1 to 2%.

Question: And the “SI (selectivity index)” value [10]?
Answer: The value was over 25.

Question: What about the “mutagenicity, mini-Ames test” value (mini-Ames test) of the same molecule?
Answer: Its value is “not mutagenic”.

Question: What about the time-kill outcome (M. bovis BCG [1]; 8× MIC90, 28 days) of the same molecule?
Answer: The time-kill outcome was “CFUs were not detected from day 21 onward”.

Question: What about the pMIC90 (M. bovis BCG [4]) of the same molecule?
Answer: The pMIC90 was over 0.5.

Question: What about the “Log10 CFU counts with vitamin C added” value (M. bovis BCG [14]) of the same molecule?
Answer: The value was “nearly halved”.

Question: What about the “pfurA activation (fluorescence)” value (pfurA promoter) of the same molecule?
Answer: The value was “induced dose-dependent increases in fluorescence”.

Question: For CCCCCC[n+]1c2c(n(CC(C)C)c1C)C(=O)c1ccccc1C2=O.[Br-] [compound 34], which pMIC90 (M. bovis BCG [4]) is on record?
Answer: Its pMIC90 is over 0.5.

Question: Which results are given for CCCCCCn1c(C)nc2c1C(=O)c1ccccc1C2=O [compound 72]?
Answer: ROS levels at higher dose [3]: increased ROS levels but not to the levels induced by the actives at comparable doses; pfurA activation (fluorescence) (pfurA promoter): less evident
